Earlier results, collected in US11761043B2, “Machine assay and analysis for selecting antihypertensive drugs” (Geneticure Inc., priority 2014, dated 2023).

Columns and labels:
CYP2D6 [1] = biological target: CYP2D6 (Homo sapiens, UniProt P10635); conditions: in vivo
renin = conditions: cytosine (guanine) variant of renin rs12750834
CYP2D6 [2] = conditions: individuals homozygous for adenine (AA) at rs3892097 vs subjects not homozygous AA

Sequence of CYP2D6 (Homo sapiens, UniProt P10635) (P10635 whole entry): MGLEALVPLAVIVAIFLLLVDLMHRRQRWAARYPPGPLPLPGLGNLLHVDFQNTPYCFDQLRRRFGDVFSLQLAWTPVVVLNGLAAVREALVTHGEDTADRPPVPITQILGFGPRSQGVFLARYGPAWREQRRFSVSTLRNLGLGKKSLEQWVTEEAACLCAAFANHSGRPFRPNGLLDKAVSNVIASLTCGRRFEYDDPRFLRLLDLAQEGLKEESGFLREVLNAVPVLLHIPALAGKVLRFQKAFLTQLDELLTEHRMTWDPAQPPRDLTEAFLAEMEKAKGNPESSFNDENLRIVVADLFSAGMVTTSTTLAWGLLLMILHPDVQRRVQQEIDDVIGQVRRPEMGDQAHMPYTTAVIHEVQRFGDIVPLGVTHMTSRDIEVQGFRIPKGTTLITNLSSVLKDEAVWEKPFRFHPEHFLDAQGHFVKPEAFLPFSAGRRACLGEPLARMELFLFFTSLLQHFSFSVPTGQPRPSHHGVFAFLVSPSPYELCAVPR

Row | SMILES | plasma levels after taking these drugs (CYP2D6 [2]) | also measured
1 | COc1ccccc1OCCNCC(O)COc1cccc2[nH]c3ccccc3c12 (stereo not shown) [carvedilol] |  | requirement of CYP2D6 for metabolism (CYP2D6 [1]): do not require CYP2D6 for their metabolism
2 | CCCCC(=O)N(Cc1ccc(-c2ccccc2-c2nnn[nH]2)cc1)[C@H](C(=O)O)C(C)C [valsartan] |  | reduction in blood pressure upon administration (renin): greater reduction in blood pressure
3 | CC(C)NCC(O)COc1cccc2ccccc12 (stereo not shown) [propranolol] | higher plasma levels | 
4 | COCCc1ccc(OCC(O)CNC(C)C)cc1 (stereo not shown) [metoprolol] | higher plasma levels | 
